Measurements: PubChem BioAssay (NCI)
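Cultured in 96-well plates, cells were exposed to test compound for 48 hours across five concentrations. The concentration for 50% growth inhibition is given as GI50. TGI: concentration producing complete growth inhibition.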

Columns and labels:
Assay in all cases: DTP human tumour cell line panel, 48 h
CCRF-CEM leukemia = test system: CCRF-CEM leukemia
COLO 205 colon = test system: COLO 205 colon
HL-60(TB) leukemia = test system: HL-60(TB) leukemia
HS 578T breast = test system: HS 578T breast
MDA-MB-435 = test system: MDA-MB-435
MDA-N = test system: MDA-N
OVCAR-4 ovarian = test system: OVCAR-4 ovarian
OVCAR-8 ovarian = test system: OVCAR-8 ovarian
UACC-62 melanoma = test system: UACC-62 melanoma
UO-31 renal = test system: UO-31 renal
MALME-3M melanoma = test system: MALME-3M melanoma

SMILES	TGI (CCRF-CEM leukemia) [µM]	TGI (COLO 205 colon) [µM]	TGI (HL-60(TB) leukemia) [µM]	TGI (HS 578T breast) [µM]	TGI (MDA-MB-435) [µM]	TGI (MDA-N) [µM]	TGI (OVCAR-4 ovarian) [µM]	TGI (OVCAR-8 ovarian) [µM]	TGI (UACC-62 melanoma) [µM]	TGI (UO-31 renal) [µM]	TGI (MALME-3M melanoma) [µM]	GI50 (HL-60(TB) leukemia) [µM]	GI50 (CCRF-CEM leukemia) [µM]	GI50 (HS 578T breast) [µM]	GI50 (MALME-3M melanoma) [µM]	GI50 (MDA-MB-435) [µM]	GI50 (UACC-62 melanoma) [µM]	GI50 (UO-31 renal) [µM]	GI50 (COLO 205 colon) [µM]
Cc1ccc(NC(=O)C(=O)CC(=O)c2sc(Nc3c(C)cccc3C)nc2C)cc1C	> 100	> 100	> 100	> 100	> 100	> 100	> 100	> 100	> 100	> 100	–	–	–	–	–	–	–	–	–
CN(C)/N=C1\CC(c2ccccc2)C(C#N)(C#N)C1(C#N)C#N (stereo not given)	> 100	22.1	> 100	75.1	81.8	40	> 100	41.9	41.8	34.4	34.2	–	–	–	–	–	–	–	–
C[C@H](C/C=C/C(C)(C)O)[C@H]1CC[C@@]2(C)[C@@H]3CC[C@H]4C(C)(C)[C@@H](O)CC[C@@]45C[C@@]35CC[C@]12C	–	–	–	27.8	50.7	> 100	43.6	33.4	56	53.6	–	–	–	–	–	–	–	–	–
COc1cccc(-c2cc(=O)c3ccccc3[nH]2)c1	> 100	> 38.2	8.57	–	–	–	> 100	> 72.7	> 100	> 100	> 100	–	–	–	–	–	–	–	–
N#C/C(=C/NC(=S)c1ccncc1)C(N)=O	–	> 100	> 100	–	> 100	> 100	> 100	> 100	> 100	> 100	–	–	–	–	–	–	–	–	–
C[N+]1(CCN[N+]2(C)CCCCC2)CCc2ccccc2C1 (stereo not given)	> 100	> 100	–	> 100	> 100	> 100	> 100	> 100	> 100	> 100	> 100	–	–	–	–	–	–	–	–
O=C(CCc1ccccc1)ON1C(=S)C(c2ccccc2)(c2ccccc2)N=C1Sc1ccccc1	> 100	> 100	> 100	> 100	–	–	> 100	> 100	> 100	> 100	> 100	–	–	–	–	–	–	–	–
COc1cccc(/C=N/[N-]C(N)=O)c1[O-].[Cu+2].[OH3+].c1ccc(-c2ccccn2)nc1	> 95.6	55.4	> 79.1	–	–	–	33.1	> 100	31.3	> 100	> 100	40.6	–	–	–	–	–	–	–
CCOC(=O)C1=COC(C)(CCc2ccccc2)CC1=O (stereo not given)	–	> 100	–	> 100	> 100	> 100	> 100	> 100	> 100	> 100	–	–	–	–	–	–	–	–	–
NNC(=O)c1cc(=O)[nH][nH]1	> 100	> 100	–	> 100	> 100	> 100	> 100	> 100	> 100	> 100	> 100	–	–	–	–	–	–	–	–
COc1cc(C2c3cc4c(cc3OC(NCCO)C2C)OCO4)cc(OC)c1OC (stereo not given)	–	12.3	–	> 100	0.463	0.5	> 100	> 100	> 100	> 76.4	> 100	–	–	–	–	–	–	–	–
CC1C(c2ccc(Cl)cc2)c2cc3c(cc2OC1N1CCOCC1)OCO3 (stereo not given)	> 100	> 100	–	70.4	> 100	> 100	–	> 100	> 100	> 100	–	–	–	–	–	–	–	–	–
CC(=O)N(O)c1ccc(-c2nc3ccccc3s2)cc1	> 100	> 100	–	> 100	> 100	> 100	> 100	> 100	> 100	> 100	88.9	–	–	–	–	–	–	–	–
C=CCOCn1cc(C)c(=O)[nH]c1=O	> 100	> 100	> 100	> 100	> 100	> 100	–	> 100	> 100	> 100	> 100	–	–	–	–	–	–	–	–
CCOC(=O)Cc1nc2c(N)ncnc2n1C1OC(COC(C)=O)C(OC(C)=O)C1OC(C)=O (stereo not given)	> 100	> 100	> 100	> 100	> 100	> 100	–	> 100	> 100	> 100	> 100	–	–	–	–	–	–	–	–
C[C@H]1S[C@H](c2c(Cl)cccc2Cl)N2Cc3ccccc3N=C12	> 100	25.2	> 100	42.3	> 100	> 100	> 100	–	26.1	26.3	–	–	–	–	–	–	–	–	–
COC(OC)[C@@H]1OC[C@@H](O)[C@@H]1n1cnc2c(N)ncnc21	> 100	> 100	–	> 100	> 100	> 100	> 100	–	> 100	> 100	> 100	–	–	–	–	–	–	–	–
CC(=O)N1CCn2c1nc1cc(Cl)ccc12	> 100	> 100	> 100	> 100	> 100	> 100	> 100	> 100	> 100	–	> 100	–	–	–	–	–	–	–	–
O=C(NC(=S)NC(=O)c1cc(O)c(O)c(O)c1)c1cc(O)c(O)c(O)c1	> 100	46.7	–	–	24.7	6.06	46.1	44.5	49.4	44.1	–	–	–	–	–	–	–	–	–
COc1cc(C2c3cc4c(cc3OC(N3CCNCC3)C2C)OCO4)cc(OC)c1OC (stereo not given)	17.7	2	0.929	3.35	1.1	0.652	21.6	> 37.8	14.9	15.6	–	–	–	–	–	–	–	–	–
Cc1nc2c(=S)n(C)ncc2[nH]1	> 100	> 100	> 100	–	> 100	> 100	> 100	> 100	> 100	> 100	69.7	–	–	–	–	–	–	–	–
CC(=N\N)/C(C)=N/N=C(C)/C(C)=N/N=C(C)/C(C)=N/N	> 100	> 100	> 100	> 100	> 100	> 100	> 100	> 100	–	> 100	> 100	–	–	–	–	–	–	–	–

SMILES	TGI (CCRF-CEM leukemia) [µM]	TGI (COLO 205 colon) [µM]	TGI (HL-60(TB) leukemia) [µM]	TGI (HS 578T breast) [µM]	TGI (MDA-MB-435) [µM]	TGI (MDA-N) [µM]	TGI (OVCAR-4 ovarian) [µM]	TGI (OVCAR-8 ovarian) [µM]	TGI (UACC-62 melanoma) [µM]	TGI (UO-31 renal) [µM]	TGI (MALME-3M melanoma) [µM]	GI50 (HL-60(TB) leukemia) [µM]	GI50 (CCRF-CEM leukemia) [µM]	GI50 (HS 578T breast) [µM]	GI50 (MALME-3M melanoma) [µM]	GI50 (MDA-MB-435) [µM]	GI50 (UACC-62 melanoma) [µM]	GI50 (UO-31 renal) [µM]	GI50 (COLO 205 colon) [µM]
Cc1cc(=O)[nH]c(NN2C(Cl)C(=O)C2c2cccc(Cl)c2)n1 (stereo not given)	41.7	–	40.4	–	–	–	97	> 100	87.2	87.6	–	–	–	–	–	–	–	–	–
O=C(OCC(Cl)(Cl)Cl)O[C@@H]1CCCC1(c1ccccc1)c1ccccc1	> 100	> 100	–	–	> 100	> 100	> 100	–	> 100	> 100	–	–	–	–	–	–	–	–	–
COc1ccc(C(OCC2OC(n3ccc(NC(=O)c4ccccc4)nc3=O)CC2OP2(=S)SCCS2)(c2ccccc2)c2ccc(OC)cc2)cc1 (stereo not given)	–	> 10	–	76.3	> 100	> 10	68.6	63.2	34.9	> 100	70.2	–	–	–	–	–	–	–	–
O=C1Nc2ccccc2Nc2ccncc21	> 100	> 100	> 100	–	–	–	> 100	> 100	> 100	> 100	> 100	–	–	–	–	–	–	–	–
Cc1ccccc1NC(=O)Cc1csc2[n+]1C(=O)/C(=C/c1ccc([N+](=O)[O-])cc1)S2	–	> 100	> 100	–	> 100	> 100	35.3	> 100	–	85.5	–	–	–	–	–	–	–	–	–
CCOC(=O)Oc1ccc2c(c1)c(=O)c1c(NCCN(CC)CC)ccc3nnn2c31	1.54	14.9	–	22.9	16.4	15.6	11.9	14.3	24.3	1.24	22	–	–	–	–	–	–	–	–
CC1=NC(=Cc2ccc([N+](=O)[O-])cc2)C(=O)N1n1c(-c2ccccc2)nc2ccccc2c1=O	> 100	> 100	88.4	> 100	> 100	> 100	–	> 100	> 100	> 100	> 100	–	–	–	–	–	–	–	–
CC(C)(C)N(Cc1ccc2c(c1)OCO2)C(=O)/C=C\Sc1ccccc1	> 100	> 100	> 100	–	> 100	> 100	> 100	> 100	> 100	> 100	–	–	–	–	–	–	–	–	–
COc1ccc2c(OCc3nnc4ccc(-c5ccccc5)nn34)ccnc2c1	> 100	–	> 100	> 100	> 100	–	–	–	> 100	–	> 100	> 100	> 58.1	> 100	> 100	> 100	> 100	–	–
CNc1ncc(-c2nnnn2-c2ccccc2)c(CN(C)C)n1	> 100	> 100	> 100	> 100	> 100	–	–	> 100	> 100	> 100	> 100	–	–	–	–	–	–	–	–
COC(=O)c1ccc(Nc2nc3nc[nH]c3c(=O)[nH]2)cc1	> 100	> 100	> 100	> 100	> 100	> 100	> 100	> 100	> 100	–	> 100	–	–	–	–	–	–	–	–
Cc1nc2ccccc2c(/C=C/c2ccc(Cl)cc2)c1C(=O)/C=C/c1ccc(Cl)cc1	> 100	–	4.37	5.97	–	–	–	–	3.27	2.25	–	1.46	0.605	2.06	–	–	1.59	1.06	–
Oc1[nH]c2ccccc2c1/C=c1/cc2c(c(-c3ccc(F)cc3)n1)=Nc1ccccc1-2	3.25	1.27	0.994	3.28	–	–	–	–	–	2.21	2.26	0.282	0.648	0.528	0.843	–	–	0.353	0.316
O=C(NNc1nc(-c2ccccc2)cs1)C(F)(F)F	> 100	> 100	> 100	52.2	> 100	–	> 100	> 100	> 100	31.6	> 100	–	–	–	–	–	–	–	–
S=C(Nc1ccc2cn[nH]c2c1)Nc1ccc2cn[nH]c2c1	–	> 100	–	> 100	> 100	> 100	> 100	> 100	> 100	> 100	> 100	–	–	–	–	–	–	–	–
Clc1ccc(OCc2nn3c(CCc4nnc5sc(COc6ccc(Cl)cc6)nn45)nnc3s2)cc1	> 100	–	72	> 100	> 100	> 100	57.7	35.8	–	3.03	–	–	–	–	–	–	–	–	–
CC(C)(C)OC(=O)NCCCCC(NC(=O)c1ccccc1)C(N)=O (stereo not given)	> 100	> 100	–	> 100	> 100	> 100	> 100	> 100	> 100	> 100	> 100	–	–	–	–	–	–	–	–
CCOC(=O)N(c1ccccc1)N(CC)C(=O)/C(C)=N/Nc1ccc([N+](=O)[O-])cc1	42	33.5	35.8	–	–	–	42.2	32.6	26.8	29.5	33.5	–	–	–	–	–	–	–	–
CC(=O)Oc1ccc(/C=C/C(=O)O[C@@H](C(=O)O)[C@@H](OC(=O)/C=C/c2ccc(OC(C)=O)c(OC(C)=O)c2)C(=O)O)cc1OC(C)=O	> 100	> 100	–	> 100	> 100	> 100	> 100	> 100	> 100	> 100	> 100	–	–	–	–	–	–	–	–
C[Si](C)(c1ccccc1)[C@H]1CCCC=C1CCNC1c2ccccc2CCc2ccccc21	> 100	> 100	–	> 100	> 100	> 100	> 100	> 100	> 100	> 100	> 100	–	–	–	–	–	–	–	–
O=c1cnn(CCOCP(=O)(O)O)c(=O)[nH]1	> 100	> 100	–	> 100	> 100	> 100	–	> 100	–	> 100	> 100	–	–	–	–	–	–	–	–
CC(C)C1N(C)c2ccc(Cl)cc2[C@H]2c3ccccc3CCN12 (stereo not given in full)	> 100	> 100	> 100	82.1	61.6	92	> 100	> 100	> 100	> 100	–	–	–	–	–	–	–	–	–
